Results as given in US20250283041A1, “METHODS FOR PRODUCING RED BLOOD CELLS” (Albert Einstein College of Medicine, priority 2022, published 2025).

Tested on: cells from the A4 clone (hemizygous D816V kit iPSC line)
Assay: Enucleation rate by flow cytometry using DRAQ5 (PSC-RED protocol without SCF and Epo)
Type: cell-based, human
Details: clone A4, 200 nM dasatinib introduced starting at day 35, read at day 41; without dasatinib about 18%
Method: Enucleation: The enucleation rate was measured using the DRAQ5 DNA nuclear stain (ThermoFisher) after exclusion of dead cells with Propidium Iodide. The cells were analyzed with an Aurora flow cytometer (Cytek) flow cytometer, and the flow cytometry data were analyzed with the Flowjo software.
To assess the effect of the D816V kit mutation, control 01 iPSCs were differentiated, and hemizygous clone A4 and homozygous and B34 were randomly selected using the PSC-RED protocol with or without SCF and Epo (FIG. 3A). Dasatinib, which can be used to inhibit the activity of the D816V SCF receptor, was also included in some experiments. Cells were counted once a week, and differentiation was evaluated by flow cytometry, methyl-cellulose assays, and microscopy after Romanowsky staining.
The rate of enucleation was determined by flow cytometry using DRAQ5, a cell permeant DNA dye. Since no cytokines are necessary after day 17 in the PSC-RED protocol in the absence of SCF and Epo, the only trigger left to induce terminal differentiation is the removal of dexamethasone and introduction of RU-4816, a glucocorticoid antagonist (FIG. 2A).

Compound: Cc1nc(Nc2ncc(C(=O)Nc3c(C)cccc3Cl)s2)cc(N2CCN(CCO)CC2)n1 [dasatinib]
- enucleation rate: about 25%
